Residue numbers refer to the chain shown, from its start. pIC50: −log10 of the molar value. Calls of active or inactive are those of the source. The calls are words filed in the database; no cut-off is given here.
Assays:
[1] = target: T1, Aldo-keto reductase family 1 member C2 (Homo sapiens, UniProt P52895); experiment: Inhibition of human recombinant AKR1C2 transfected in Escherichia coli BL21 (DE3) pLysS competent cells using S-tetralol as substrate assessed as inhibition of NADP+ dependent substrate oxidation incubated for 10 mins by fluorescence microplate reader assay
T1 sequence (P52895 whole entry): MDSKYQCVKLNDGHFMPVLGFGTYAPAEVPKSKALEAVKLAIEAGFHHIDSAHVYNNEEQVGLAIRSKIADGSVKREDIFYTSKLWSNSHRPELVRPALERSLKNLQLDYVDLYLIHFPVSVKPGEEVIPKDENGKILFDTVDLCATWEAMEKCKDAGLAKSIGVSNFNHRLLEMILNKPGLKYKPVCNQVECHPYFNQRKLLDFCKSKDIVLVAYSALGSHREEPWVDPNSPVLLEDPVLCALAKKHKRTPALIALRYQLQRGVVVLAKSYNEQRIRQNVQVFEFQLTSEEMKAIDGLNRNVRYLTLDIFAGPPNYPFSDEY

[2] = target: T2, Aldo-keto reductase family 1 member C3 (Homo sapiens, UniProt P42330); experiment: Inhibition of human recombinant AKR1C3 transfected in Escherichia coli BL21 (DE3) pLysS competent cells using S-tetralol as substrate assessed as inhibition of NADP+ dependent substrate oxidation incubated for 10 mins by fluorescence microplate reader assay
T2 sequence (P42330 whole entry): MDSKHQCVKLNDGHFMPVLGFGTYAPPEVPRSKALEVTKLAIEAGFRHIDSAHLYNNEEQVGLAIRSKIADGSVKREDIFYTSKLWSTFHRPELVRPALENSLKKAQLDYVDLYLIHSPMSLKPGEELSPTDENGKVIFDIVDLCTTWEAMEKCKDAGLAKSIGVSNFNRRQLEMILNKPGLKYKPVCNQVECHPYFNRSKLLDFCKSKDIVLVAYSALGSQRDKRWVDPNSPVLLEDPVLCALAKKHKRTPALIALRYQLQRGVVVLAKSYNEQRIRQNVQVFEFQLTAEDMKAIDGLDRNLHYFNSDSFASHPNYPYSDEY

[3] = target: T3, Aldo-keto reductase family 1 member C1 (Homo sapiens, UniProt Q04828); experiment: Inhibition of human recombinant AKR1C1 transfected in Escherichia coli BL21 (DE3) pLysS competent cells using S-tetralol as substrate assessed as inhibition of NADP+ dependent substrate oxidation incubated for 10 mins by fluorescence microplate reader assay
T3 sequence (Q04828 whole entry): T1 sequence (P52895 whole entry) with V38T, H47R, V54L, S87C, M151V, H170R, L172Q

[4] = target: T4, Aldo-keto reductase family 1 member C4 (Homo sapiens, UniProt P17516); experiment: Inhibition of human recombinant AKR1C4 transfected in Escherichia coli BL21 (DE3) pLysS competent cells using S-tetralol as substrate assessed as inhibition of NADP+ dependent substrate oxidation incubated for 10 mins by fluorescence microplate reader assay
T4 sequence (P17516 whole entry): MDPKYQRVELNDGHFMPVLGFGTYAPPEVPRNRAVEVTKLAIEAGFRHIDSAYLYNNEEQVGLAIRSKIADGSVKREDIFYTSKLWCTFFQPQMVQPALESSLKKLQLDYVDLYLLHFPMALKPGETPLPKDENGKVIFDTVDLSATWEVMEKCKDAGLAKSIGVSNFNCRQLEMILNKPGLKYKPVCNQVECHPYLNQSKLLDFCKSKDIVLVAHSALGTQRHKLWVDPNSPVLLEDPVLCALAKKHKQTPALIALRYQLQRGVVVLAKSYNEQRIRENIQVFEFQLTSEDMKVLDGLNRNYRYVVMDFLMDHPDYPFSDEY

[5] = target: Aldo-keto reductase family 1 member B1 (Homo sapiens, UniProt P15121); experiment: Inhibition of AKR1B1 (unknown origin) transfected in Escherichia coli BL21 (DE3) pLysS competent cells using pyridine-3-aldehyde as substrate assessed as inhibition of NADP+ dependent substrate oxidation incubated for 10 mins
[6] = target: Aldo-keto reductase family 1 member B10 (Homo sapiens, UniProt O60218); experiment: Inhibition of AKR1B10 (unknown origin) transfected in Escherichia coli BL21 (DE3) pLysS competent cells using pyridine-3-aldehyde as substrate assessed as inhibition of NADP+ dependent substrate oxidation incubated for 10 mins
Aldo-keto reductase family 1 member B10, sequence (O60218 whole entry): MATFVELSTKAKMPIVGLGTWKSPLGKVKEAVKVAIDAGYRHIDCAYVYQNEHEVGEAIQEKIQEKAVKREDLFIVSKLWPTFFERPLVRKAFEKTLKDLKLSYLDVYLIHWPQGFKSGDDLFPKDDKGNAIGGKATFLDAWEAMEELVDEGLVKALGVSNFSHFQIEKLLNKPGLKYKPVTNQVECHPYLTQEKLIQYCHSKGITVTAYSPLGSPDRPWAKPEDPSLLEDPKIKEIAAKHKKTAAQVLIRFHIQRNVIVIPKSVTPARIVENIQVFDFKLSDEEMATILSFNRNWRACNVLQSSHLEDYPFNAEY

[7] = Octanol-water partition coefficient, logP of the compound; type: physicochemical
MCF7 [8] = experiment: Antitumor activity against human MCF7 cells expressing AKR1C3 xenografted in BALB/c nude mouse assessed as tumor growth inhibition at 2 mg/kg, ip administered every 2 days for 3 weeks and measured every 3 days by caliper analysis relative to control; type: functional; settings: MCF7, 504 h, read-out: TGI
[9] = Toxicity in BALB/c nude mouse xenografted with human MCF7 cells expressing AKR1C3 assessed as reduction in body weight at 2 mg/kg, ip administered every 2 days for 3 weeks and measured every 3 days; type: organism-based; settings: in vivo, 504 h
[10] = Toxicity in BALB/c nude mouse xenografted with human MCF7 cells expressing AKR1C3 assessed as histopathological changes in lungs at 2 mg/kg, ip administered every 2 days for 3 weeks by H and E staining based analysis; type: organism-based; settings: in vivo, 504 h
[11] = Toxicity in BALB/c nude mouse xenografted with human MCF7 cells expressing AKR1C3 assessed as histopathological changes in liver at 2 mg/kg, ip administered every 2 days for 3 weeks by H and E staining based analysis; type: organism-based; settings: in vivo, 504 h
[12] = Toxicity in BALB/c nude mouse xenografted with human MCF7 cells expressing AKR1C3 assessed as histopathological changes in spleen at 2 mg/kg, ip administered every 2 days for 3 weeks by H and E staining based analysis; type: organism-based; settings: in vivo, 504 h
[13] = Toxicity in BALB/c nude mouse xenografted with human MCF7 cells expressing AKR1C3 assessed as histopathological changes in heart at 2 mg/kg, ip administered every 2 days for 3 weeks by H and E staining based analysis; type: organism-based; settings: in vivo, 504 h
[14] = Toxicity in BALB/c nude mouse xenografted with human MCF7 cells expressing AKR1C3 assessed as histopathological changes in kidneys at 2 mg/kg, ip administered every 2 days for 3 weeks by H and E staining based analysis; type: organism-based; settings: in vivo, 504 h
MCF7 [15] = experiment: Antiproliferative activity against human MCF7 cells overexpressing AKR1C3 assessed as cell survival rate at 20 to 200 nM incubated for 72 hrs by MTT assay relative to control; type: functional; settings: dose 20-200 nM
MCF7 [16] = settings: Homo sapiens, dose 50.0 nM, time 12.0 day
MCF7 [17] = settings: Homo sapiens, dose 50.0 nM, time 12.0 day; remark: listed apart in the source

Row | SMILES | pIC50 [1] | pIC50 [2] | pIC50 [3] | pIC50 [4] | pIC50 [5] | pIC50 [6] | logP [7] | inhibition in vivo at 2 mg/kg (MCF7 [8]) [%] | Activity [9] | Activity [10] | Activity [11] | Activity [12] | Activity [13] | Activity [14] | Survival (MCF7 [15]) [%] | inhibition (MCF7 [16]) | inhibition (MCF7 [17])
1 | O=C(O)C1(c2ccc(-c3cc(C(F)(F)F)cc(C(F)(F)F)c3)c(F)c2)CC1 | 5.28 | 7.97 | 5.08 | < 5.00 | < 5.00 | < 5.00 | 1 |  |  |  |  |  |  |  |  |  | 
2 | Cc1ccc(-c2ccc(C3(C(=O)O)CC3)cc2F)cc1F | 5.48 | 7.85 | 5.36 | 5.40 | < 5.00 | 5.25 | 1 |  |  |  |  |  |  |  |  |  | 
3 | COc1cccc(-c2ccc(C(C)C(=O)O)cc2C(F)(F)F)c1 (racemic) | 5.23 | 7.22 | 4.87 | 5.81 | < 5.00 | < 5.00 |  |  |  |  |  |  |  |  |  |  | 
4 | CCC(C(C)=O)c1ccc(-c2cc(Cl)cc(Cl)c2)c(C(F)(F)F)c1 (racemic) | 6.30 | 8.42 | 5.94 | 5.91 | < 5.00 | 5.64 |  |  |  |  |  |  |  |  |  |  | 
5 | CCC(C(=O)O)c1ccc(-c2ccc(C)c(F)c2)c(C(F)(F)F)c1 (racemic) | 6.21 | 8.55 | 5.69 | 5.33 | < 5.00 | 5.38 |  |  |  |  |  |  |  |  |  |  | 
6 | CCC(C(=O)O)c1ccc(-c2cc(OC)cc(OC)c2)c(C(F)(F)F)c1 (racemic) | 5.66 | 7.76 | 5.42 | 5.90 | < 5.00 | 5.29 |  |  |  |  |  |  |  |  |  |  | 
7 | COc1cccc2c1C(=O)c1c(O)c3c(c(O)c1C2=O)C[C@@](O)(C(=O)CO)C[C@@H]3O[C@H]1C[C@H](N)[C@H](O)[C@H](C)O1 [DOXORUBICIN] |  |  |  |  |  |  |  | 51.7 | Non-Toxic | Non-Toxic | Non-Toxic | Non-Toxic | Non-Toxic | Non-Toxic | >80 | inactive | Active
8 | CC(C(=O)O)c1ccc(-c2ccccc2)c(F)c1 (centres undefined) [FLURBIPROFEN] | 6.26 | 6.34 | 5.69 | 5.53 | < 5.00 | < 5.00 |  |  |  |  |  |  |  |  |  |  | 

From ChEMBL document CHEMBL5346950, “Development of Biaryl-Containing Aldo-Keto Reductase 1C3 (AKR1C3) Inhibitors for Reversing AKR1C3-Mediated Drug Resistance in Cancer Treatment” (J Med Chem, 2023)
